Numbers after ± are expanded uncertainties.
Columns and labels:
[1] = osmotic coefficient (dimensionless); mn = molality of the nth substance listed, in mol/kg; settings: 298.15 K, Liquid, Vapor Pressure Osmometer (Knaur K-7000)
[2] = mn = molality of the nth substance listed, in mol/kg; settings: 298.15 K, 101 kPa, Liquid

## CCCCNc1ccc(C(=O)OCCN(C)C)cc1.Cl + O
[1]; m1 = 0.01696
  osmotic coefficient: 0.896 ± 0.004
[1]; m1 = 0.0205
  osmotic coefficient: 0.884 ± 0.005
[1]; m1 = 0.02526
  osmotic coefficient: 0.871 ± 0.005
[1]; m1 = 0.0301
  osmotic coefficient: 0.858 ± 0.006
[1]; m1 = 0.03454
  osmotic coefficient: 0.848 ± 0.006
[1]; m1 = 0.03897
  osmotic coefficient: 0.839 ± 0.006
[1]; m1 = 0.04254
  osmotic coefficient: 0.832 ± 0.007
[1]; m1 = 0.04793
  osmotic coefficient: 0.822 ± 0.007
[1]; m1 = 0.05807
  osmotic coefficient: 0.805 ± 0.008
[1]; m1 = 0.06741
  osmotic coefficient: 0.79 ± 0.008
[1]; m1 = 0.07521
  osmotic coefficient: 0.778 ± 0.009
[1]; m1 = 0.08589
  osmotic coefficient: 0.762 ± 0.009
[1]; m1 = 0.09567
  osmotic coefficient: 0.747 ± 0.01
[1]; m1 = 0.1161
  osmotic coefficient: 0.716 ± 0.011
[1]; m1 = 0.1436
  osmotic coefficient: 0.672 ± 0.013
[1]; m1 = 0.1726
  osmotic coefficient: 0.622 ± 0.015
[1]; m1 = 0.1924
  osmotic coefficient: 0.587 ± 0.016
[1]; m1 = 0.2427
  osmotic coefficient: 0.498 ± 0.019
[1]; m1 = 0.3009
  osmotic coefficient: 0.411 ± 0.023
[1]; m1 = 0.3479
  osmotic coefficient: 0.367 ± 0.025
[1]; m1 = 0.4005
  osmotic coefficient: 0.363 ± 0.025
[2]; m1 = 0.01696
  mass density: 997.722 ± 0.094 kg/m3
[2]; m1 = 0.0205
  mass density: 997.869 ± 0.095 kg/m3
[2]; m1 = 0.02526
  mass density: 998.076 ± 0.094 kg/m3
[2]; m1 = 0.0301
  mass density: 998.265 ± 0.093 kg/m3
[2]; m1 = 0.03454
  mass density: 998.444 ± 0.093 kg/m3
[2]; m1 = 0.03897
  mass density: 998.614 ± 0.093 kg/m3
[2]; m1 = 0.04254
  mass density: 998.764 ± 0.094 kg/m3
[2]; m1 = 0.04793
  mass density: 998.98 ± 0.094 kg/m3
[2]; m1 = 0.05807
  mass density: 999.405 ± 0.093 kg/m3
[2]; m1 = 0.06741
  mass density: 999.767 ± 0.092 kg/m3
[2]; m1 = 0.07521
  mass density: 1000.07 ± 0.09 kg/m3
[2]; m1 = 0.08589
  mass density: 1000.49 ± 0.09 kg/m3
[2]; m1 = 0.09567
  mass density: 1000.88 ± 0.09 kg/m3
[2]; m1 = 0.1161
  mass density: 1001.66 ± 0.09 kg/m3
[2]; m1 = 0.1436
  mass density: 1002.67 ± 0.09 kg/m3
[2]; m1 = 0.1726
  mass density: 1003.78 ± 0.09 kg/m3
[2]; m1 = 0.1924
  mass density: 1004.46 ± 0.09 kg/m3
[2]; m1 = 0.2427
  mass density: 1006.27 ± 0.1 kg/m3
[2]; m1 = 0.3009
  mass density: 1008.22 ± 0.1 kg/m3
[2]; m1 = 0.3479
  mass density: 1009.67 ± 0.1 kg/m3
[2]; m1 = 0.4005
  mass density: 1011.44 ± 0.1 kg/m3

## CCN(CC)CCOC(=O)c1ccc(N)cc1.Cl [2-diethylaminoethyl p-aminobenzoate hydrochloride] + O
[1]; m1 = 0.0158
  osmotic coefficient: 0.885 ± 0.005
[1]; m1 = 0.01893
  osmotic coefficient: 0.873 ± 0.005
[1]; m1 = 0.02475
  osmotic coefficient: 0.856 ± 0.006
[1]; m1 = 0.03023
  osmotic coefficient: 0.843 ± 0.006
[1]; m1 = 0.03265
  osmotic coefficient: 0.838 ± 0.006
[1]; m1 = 0.03891
  osmotic coefficient: 0.827 ± 0.007
[1]; m1 = 0.04358
  osmotic coefficient: 0.82 ± 0.007
[1]; m1 = 0.04823
  osmotic coefficient: 0.814 ± 0.007
[1]; m1 = 0.05787
  osmotic coefficient: 0.804 ± 0.008
[1]; m1 = 0.0712
  osmotic coefficient: 0.794 ± 0.008
[1]; m1 = 0.09584
  osmotic coefficient: 0.781 ± 0.008
[1]; m1 = 0.1165
  osmotic coefficient: 0.772 ± 0.009
[1]; m1 = 0.1438
  osmotic coefficient: 0.759 ± 0.009
[1]; m1 = 0.1749
  osmotic coefficient: 0.741 ± 0.01
[1]; m1 = 0.1973
  osmotic coefficient: 0.727 ± 0.011
[1]; m1 = 0.2187
  osmotic coefficient: 0.713 ± 0.011
[1]; m1 = 0.2457
  osmotic coefficient: 0.694 ± 0.012
[1]; m1 = 0.2791
  osmotic coefficient: 0.673 ± 0.013
[1]; m1 = 0.2997
  osmotic coefficient: 0.661 ± 0.013
[1]; m1 = 0.3205
  osmotic coefficient: 0.65 ± 0.014
[1]; m1 = 0.3523
  osmotic coefficient: 0.636 ± 0.014
[1]; m1 = 0.4061
  osmotic coefficient: 0.62 ± 0.015
[1]; m1 = 0.4613
  osmotic coefficient: 0.609 ± 0.015
[1]; m1 = 0.517
  osmotic coefficient: 0.587 ± 0.016
[2]; m1 = 0.0158
  mass density: 997.809 ± 0.1 kg/m3
[2]; m1 = 0.01893
  mass density: 997.979 ± 0.096 kg/m3
[2]; m1 = 0.02475
  mass density: 998.219 ± 0.096 kg/m3
[2]; m1 = 0.03023
  mass density: 998.477 ± 0.098 kg/m3
[2]; m1 = 0.03265
  mass density: 998.609 ± 0.096 kg/m3
[2]; m1 = 0.03891
  mass density: 998.872 ± 0.096 kg/m3
[2]; m1 = 0.04358
  mass density: 999.105 ± 0.098 kg/m3
[2]; m1 = 0.04823
  mass density: 999.338 ± 0.097 kg/m3
[2]; m1 = 0.05787
  mass density: 999.774 ± 0.096 kg/m3
[2]; m1 = 0.0712
  mass density: 1000.37 ± 0.1 kg/m3
[2]; m1 = 0.09584
  mass density: 1001.52 ± 0.1 kg/m3
[2]; m1 = 0.1165
  mass density: 1002.46 ± 0.1 kg/m3
[2]; m1 = 0.1438
  mass density: 1003.64 ± 0.1 kg/m3
[2]; m1 = 0.1749
  mass density: 1005.05 ± 0.1 kg/m3
[2]; m1 = 0.1973
  mass density: 1005.94 ± 0.11 kg/m3
[2]; m1 = 0.2187
  mass density: 1007.01 ± 0.11 kg/m3
[2]; m1 = 0.2457
  mass density: 1008.14 ± 0.11 kg/m3
[2]; m1 = 0.2791
  mass density: 1009.54 ± 0.11 kg/m3
[2]; m1 = 0.2997
  mass density: 1010.41 ± 0.11 kg/m3
[2]; m1 = 0.3205
  mass density: 1011.32 ± 0.12 kg/m3
[2]; m1 = 0.3523
  mass density: 1012.67 ± 0.12 kg/m3
[2]; m1 = 0.4061
  mass density: 1014.95 ± 0.12 kg/m3
[2]; m1 = 0.4613
  mass density: 1016.97 ± 0.13 kg/m3
[2]; m1 = 0.517
  mass density: 1019.21 ± 0.14 kg/m3

## CCN(CC)CC(=O)Nc1c(C)cccc1C.Cl [lidocaine hydrochloride] + O
[1]; m1 = 0.01004
  osmotic coefficient: 0.879 ± 0.005
[1]; m1 = 0.02018
  osmotic coefficient: 0.83 ± 0.007
[1]; m1 = 0.02958
  osmotic coefficient: 0.807 ± 0.007
[1]; m1 = 0.03474
  osmotic coefficient: 0.8 ± 0.008
[1]; m1 = 0.03911
  osmotic coefficient: 0.796 ± 0.008
[1]; m1 = 0.04409
  osmotic coefficient: 0.793 ± 0.008
[1]; m1 = 0.04809
  osmotic coefficient: 0.792 ± 0.008
[1]; m1 = 0.05588
  osmotic coefficient: 0.792 ± 0.008
[1]; m1 = 0.07017
  osmotic coefficient: 0.796 ± 0.008
[1]; m1 = 0.09322
  osmotic coefficient: 0.805 ± 0.008
[1]; m1 = 0.1151
  osmotic coefficient: 0.812 ± 0.007
[1]; m1 = 0.141
  osmotic coefficient: 0.813 ± 0.007
[1]; m1 = 0.1712
  osmotic coefficient: 0.805 ± 0.008
[1]; m1 = 0.188
  osmotic coefficient: 0.797 ± 0.008
[1]; m1 = 0.2082
  osmotic coefficient: 0.785 ± 0.008
[1]; m1 = 0.2386
  osmotic coefficient: 0.765 ± 0.009
[1]; m1 = 0.2675
  osmotic coefficient: 0.748 ± 0.01
[1]; m1 = 0.2906
  osmotic coefficient: 0.736 ± 0.01
[1]; m1 = 0.3089
  osmotic coefficient: 0.728 ± 0.011
[1]; m1 = 0.3399
  osmotic coefficient: 0.72 ± 0.011
[1]; m1 = 0.3919
  osmotic coefficient: 0.718 ± 0.011
[1]; m1 = 0.4432
  osmotic coefficient: 0.72 ± 0.011
[1]; m1 = 0.4982
  osmotic coefficient: 0.696 ± 0.012
[2]; m1 = 0.01004
  mass density: 997.37 ± 0.091 kg/m3
[2]; m1 = 0.02018
  mass density: 997.713 ± 0.091 kg/m3
[2]; m1 = 0.02958
  mass density: 998.034 ± 0.091 kg/m3
[2]; m1 = 0.03474
  mass density: 998.184 ± 0.091 kg/m3
[2]; m1 = 0.03911
  mass density: 998.35 ± 0.091 kg/m3
[2]; m1 = 0.04409
  mass density: 998.51 ± 0.09 kg/m3
[2]; m1 = 0.04809
  mass density: 998.641 ± 0.09 kg/m3
[2]; m1 = 0.05588
  mass density: 998.887 ± 0.091 kg/m3
[2]; m1 = 0.07017
  mass density: 999.384 ± 0.09 kg/m3
[2]; m1 = 0.09322
  mass density: 1000.14 ± 0.09 kg/m3
[2]; m1 = 0.1151
  mass density: 1000.85 ± 0.09 kg/m3
[2]; m1 = 0.141
  mass density: 1001.69 ± 0.09 kg/m3
[2]; m1 = 0.1712
  mass density: 1002.65 ± 0.09 kg/m3
[2]; m1 = 0.188
  mass density: 1003.15 ± 0.09 kg/m3
[2]; m1 = 0.2082
  mass density: 1003.81 ± 0.09 kg/m3
[2]; m1 = 0.2386
  mass density: 1004.84 ± 0.09 kg/m3
[2]; m1 = 0.2675
  mass density: 1005.71 ± 0.09 kg/m3
[2]; m1 = 0.2906
  mass density: 1006.37 ± 0.09 kg/m3
[2]; m1 = 0.3089
  mass density: 1006.95 ± 0.1 kg/m3
[2]; m1 = 0.3399
  mass density: 1007.94 ± 0.1 kg/m3
[2]; m1 = 0.3919
  mass density: 1009.45 ± 0.1 kg/m3
[2]; m1 = 0.4432
  mass density: 1011.03 ± 0.1 kg/m3
[2]; m1 = 0.4982
  mass density: 1012.71 ± 0.1 kg/m3

Reference: the NIST ThermoML archive (doi:10.1021/je3006985)
